Laboratory results taken from ChEMBL document CHEMBL1122904, “Bioactive conformation of 1-arylpiperazines at central serotonin receptors” (J Med Chem, 1985).

biological target: 5-hydroxytryptamine receptor 1B (Rattus norvegicus, UniProt P28564); test: Intrinsic affinity towards serotonin receptor from rat frontal cortex by displacement of [3H]5-HT; assay type: tissue-based
Sequence (P28564 whole entry): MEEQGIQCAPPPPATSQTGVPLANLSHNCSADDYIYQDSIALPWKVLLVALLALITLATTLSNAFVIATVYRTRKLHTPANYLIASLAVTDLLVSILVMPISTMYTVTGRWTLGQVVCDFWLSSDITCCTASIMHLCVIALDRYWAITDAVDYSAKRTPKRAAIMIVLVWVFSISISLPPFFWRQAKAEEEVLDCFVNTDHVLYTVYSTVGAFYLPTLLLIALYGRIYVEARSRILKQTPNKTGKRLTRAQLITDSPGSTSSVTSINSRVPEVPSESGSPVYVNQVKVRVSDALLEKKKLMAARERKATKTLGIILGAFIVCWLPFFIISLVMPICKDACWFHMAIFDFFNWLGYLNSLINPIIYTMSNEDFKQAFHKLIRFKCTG

Point of comparison: `FC(F)(F)c1cccc(N2CCNCC2)c1`, Ki 116 nM. Against it:
- FC(F)(F)c1ccc2c(c1)N1CCNCC1CC2 (stereo not drawn) — 1.7-fold lower, 67 nM
- Clc1cncc(N2CCNCC2)n1 [MK-212] — 31-fold higher, 3630 nM
